What is called Ki is a measure of affinity in units of concentration, obtained from inhibition or displacement. Low values mean a stronger hold on the target, high ones a looser hold on the target. As a reminder, the IC50 is the concentration that inhibits the measured activity by half. A word on the bioavailability: it is the share of a dose that reaches the circulation, judged against a reference dose that is usually intravenous.

Data on three compounds can be found in ChEMBL document CHEMBL2203036, “Discovery of 1-[2-(2,4-dimethylphenylsulfanyl)phenyl]piperazine (Lu AA21004): a novel multimodal compound for the treatment of major depressive disorder” (J Med Chem, 2011).

In series [1] the target is Alpha-1A adrenergic receptor (Rattus norvegicus, UniProt P43140). The series can be described thus: Binding affinity to rat alpha1 adrenergic receptor.
The target of series [2] is 5-hydroxytryptamine receptor 2C (Homo sapiens, UniProt P28335). Nature of the series: Binding affinity to human 5HT2C receptor.
Series [3] addresses Sodium-dependent serotonin transporter (Rattus norvegicus, UniProt P31652). Nature of the series: Inhibition of SERT-mediated [3H]5HT uptake in rat synaptosomes by scintillation counting. Format: subcellular, Brain.
Series [4] deals with T1, 5-hydroxytryptamine receptor 1A (Homo sapiens, UniProt P08908).
T1 sequence (P08908 whole entry): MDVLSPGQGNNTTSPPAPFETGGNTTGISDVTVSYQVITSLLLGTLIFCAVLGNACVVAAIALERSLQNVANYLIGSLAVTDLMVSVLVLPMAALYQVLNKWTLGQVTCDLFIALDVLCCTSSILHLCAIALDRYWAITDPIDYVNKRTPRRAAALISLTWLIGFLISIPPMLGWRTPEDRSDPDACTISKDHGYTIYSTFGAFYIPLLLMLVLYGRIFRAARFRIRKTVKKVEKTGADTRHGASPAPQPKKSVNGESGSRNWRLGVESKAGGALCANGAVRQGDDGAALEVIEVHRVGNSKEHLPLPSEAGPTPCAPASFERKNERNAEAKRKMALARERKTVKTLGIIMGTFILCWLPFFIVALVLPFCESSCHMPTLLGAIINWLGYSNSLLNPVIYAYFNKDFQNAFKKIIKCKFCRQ
Nature of the series: biochemical. Format: cell-based, HEK293.
Description: Displacement of [3H]5-carboxamidotryptamine to human 5HT1A expressed in HEK293 cells by filter binding assay

The target in series [5] is T2, 5-hydroxytryptamine receptor 3A (Homo sapiens, UniProt P46098).
T2 sequence (P46098 whole entry): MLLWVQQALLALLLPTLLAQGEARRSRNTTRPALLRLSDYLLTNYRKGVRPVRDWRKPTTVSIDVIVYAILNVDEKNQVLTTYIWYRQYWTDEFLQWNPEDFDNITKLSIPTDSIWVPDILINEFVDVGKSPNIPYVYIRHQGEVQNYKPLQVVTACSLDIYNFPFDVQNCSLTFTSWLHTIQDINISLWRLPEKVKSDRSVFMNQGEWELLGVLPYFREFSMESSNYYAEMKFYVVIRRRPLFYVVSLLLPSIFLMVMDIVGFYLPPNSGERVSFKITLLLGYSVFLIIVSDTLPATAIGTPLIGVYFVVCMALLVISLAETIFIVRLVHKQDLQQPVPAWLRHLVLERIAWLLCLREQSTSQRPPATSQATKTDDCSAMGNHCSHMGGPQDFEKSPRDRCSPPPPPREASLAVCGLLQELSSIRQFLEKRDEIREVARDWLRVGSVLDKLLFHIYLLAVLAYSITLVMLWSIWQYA
Nature of the series: Displacement of [3H]granisetron from human 5HT3A receptor expressed in HEK293 cells by filter binding assay. The series is classed as cell-based. A general note: In a radioligand displacement assay an active substance lowers the binding of a labelled ligand.

Series [6] has as its system Rattus norvegicus. Nature of the series: Antidepression activity in sc dosed Harlan rat assessed as increase in extracellular 5HT level in ventral hippocampus region measured up to 180 mins by microdialysis method relative to vehicle-treated control. The series is classed as functional.
Series [7] is described as follows: Oral bioavailability in rat at 2 mg/kg. Format: ADME, organism-based. The note with it: in vivo.
For series [8], the system named is Rattus norvegicus. The series can be described thus: Hepatic clearance in rat at 1 mg/kg, iv. The series is classed as ADME, organism-based, Liver. Also noted: dose 1 mg/kg, route intravenous. The settings on record: in vivo.
The target in the next series is Cytochrome P450 3A4 (Homo sapiens, UniProt P08684). The series can be described thus: Inhibition of human recombinant CYP3A4 using resorufin benzyl ether after 30 mins by fluorescence spectrophotometric analysis. The series is classed as ADME.
A further series concerns the target Cytochrome P450 2D6 (Homo sapiens, UniProt P10635). The series can be described thus: Inhibition of human recombinant CYP2D6 using 3-[2-(N,N-diethyl-N-methylamino)ethyl]-7-methoxy- 4-methylcoumarin after 45 mins by fluorescence spectrophotometric analysis. Format: ADME.
The target in the next series is Cytochrome P450 2C9 (Homo sapiens, UniProt P11712). Nature of the series: Inhibition of human recombinant CYP2C9 using dibenzylfluorescein after 45 mins by fluorescence spectrophotometric analysis. Format: ADME.
The next series addresses T3, Cytochrome P450 1A2 (Homo sapiens, UniProt P05177).
T3 sequence (P05177 whole entry): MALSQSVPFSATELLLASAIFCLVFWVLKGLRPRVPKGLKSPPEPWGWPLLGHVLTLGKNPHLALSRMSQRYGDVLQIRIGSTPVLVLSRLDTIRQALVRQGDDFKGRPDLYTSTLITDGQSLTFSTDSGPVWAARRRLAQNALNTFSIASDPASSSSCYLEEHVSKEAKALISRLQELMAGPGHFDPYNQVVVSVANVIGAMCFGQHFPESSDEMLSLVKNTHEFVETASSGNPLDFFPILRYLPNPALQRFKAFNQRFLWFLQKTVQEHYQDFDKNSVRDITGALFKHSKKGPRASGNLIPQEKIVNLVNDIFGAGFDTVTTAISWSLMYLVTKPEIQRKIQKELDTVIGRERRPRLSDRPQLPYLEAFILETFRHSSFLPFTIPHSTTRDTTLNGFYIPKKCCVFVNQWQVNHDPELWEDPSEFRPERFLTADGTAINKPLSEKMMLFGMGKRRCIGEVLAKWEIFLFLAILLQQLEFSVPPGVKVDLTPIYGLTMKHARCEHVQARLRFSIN
The series can be described thus: Inhibition of human recombinant CYP1A2 using 7-ethoxy-3-cyanocoumarin after 28 mins by fluorescence spectrophotometric analysis. The series is classed as ADME.

In series [9] the test system is Liver microsomes. Nature of the series: Intrinsic clearance in rat liver microsomes at 1 uM after 60 mins by LC-MS/MS analysis. Format: ADME, Microsome. The note with it: 1 h. In general terms: Liver microsomes are vesicles of endoplasmic reticulum, rich in cytochrome P450 enzymes.
Series [10] concerns Liver microsomes. The series can be described thus: Intrinsic clearance in human liver microsomes at 1 uM after 60 mins by LC-MS/MS analysis. Format: ADME, Microsome. The note with it: 1 h.
Series [11] has as its target T4, Sodium-dependent dopamine transporter (Rattus norvegicus, UniProt P23977). The series can be described thus: Inhibition of rat DAT.
Series [12] in a line: Inhibition of rat NET.
The nature of series [13]: Inhibition of NET-mediated [3H]NE in rat synaptosomes by scintillation counting. Format: subcellular, Brain.
Series [14] addresses T4, Sodium-dependent dopamine transporter. Nature of the series: Inhibition of DAT-mediated [3H]DA in rat synaptosomes by scintillation counting. Format: subcellular, Brain.
The species entered for series [15] is Rattus norvegicus. Nature of the series: Selectivity ratio of IC50 for NET to IC50 for SERT in rat synaptosomes. The note with it: Brain.
The species named for series [16] is Rattus norvegicus. Nature of the series: Selectivity ratio of IC50 for DAT to IC50 for SERT in rat synaptosomes. The settings on record: Brain.
For series [17], the species on record is Rattus norvegicus. The series can be described thus: Selectivity ratio of IC50 for rat DAT to IC50 for SERT in rat synaptosomes. The note with it: Brain.
Series [18] is filed under the species Rattus norvegicus. Nature of the series: Selectivity ratio of IC50 for rat NET to IC50 for SERT in rat synaptosomes. The note with it: Brain.

Some results are limits rather than exact numbers.

T4 sequence (P23977 whole entry): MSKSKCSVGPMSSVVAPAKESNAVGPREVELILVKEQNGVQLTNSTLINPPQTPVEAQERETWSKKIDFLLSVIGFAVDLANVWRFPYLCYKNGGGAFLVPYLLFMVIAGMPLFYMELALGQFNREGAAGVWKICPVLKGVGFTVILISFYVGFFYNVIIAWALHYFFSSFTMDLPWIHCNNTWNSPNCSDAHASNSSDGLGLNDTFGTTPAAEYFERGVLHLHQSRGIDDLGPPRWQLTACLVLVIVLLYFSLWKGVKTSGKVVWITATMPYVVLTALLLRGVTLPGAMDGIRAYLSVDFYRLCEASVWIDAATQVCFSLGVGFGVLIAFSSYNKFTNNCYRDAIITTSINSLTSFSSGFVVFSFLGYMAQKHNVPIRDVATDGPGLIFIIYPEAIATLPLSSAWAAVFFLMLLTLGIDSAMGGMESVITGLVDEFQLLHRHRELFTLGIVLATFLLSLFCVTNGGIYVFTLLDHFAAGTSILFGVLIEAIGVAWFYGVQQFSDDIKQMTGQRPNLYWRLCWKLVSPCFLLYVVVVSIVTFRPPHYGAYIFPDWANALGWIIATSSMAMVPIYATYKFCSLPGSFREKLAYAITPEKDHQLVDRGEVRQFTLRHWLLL
Sodium-dependent serotonin transporter, sequence (P31652 whole entry): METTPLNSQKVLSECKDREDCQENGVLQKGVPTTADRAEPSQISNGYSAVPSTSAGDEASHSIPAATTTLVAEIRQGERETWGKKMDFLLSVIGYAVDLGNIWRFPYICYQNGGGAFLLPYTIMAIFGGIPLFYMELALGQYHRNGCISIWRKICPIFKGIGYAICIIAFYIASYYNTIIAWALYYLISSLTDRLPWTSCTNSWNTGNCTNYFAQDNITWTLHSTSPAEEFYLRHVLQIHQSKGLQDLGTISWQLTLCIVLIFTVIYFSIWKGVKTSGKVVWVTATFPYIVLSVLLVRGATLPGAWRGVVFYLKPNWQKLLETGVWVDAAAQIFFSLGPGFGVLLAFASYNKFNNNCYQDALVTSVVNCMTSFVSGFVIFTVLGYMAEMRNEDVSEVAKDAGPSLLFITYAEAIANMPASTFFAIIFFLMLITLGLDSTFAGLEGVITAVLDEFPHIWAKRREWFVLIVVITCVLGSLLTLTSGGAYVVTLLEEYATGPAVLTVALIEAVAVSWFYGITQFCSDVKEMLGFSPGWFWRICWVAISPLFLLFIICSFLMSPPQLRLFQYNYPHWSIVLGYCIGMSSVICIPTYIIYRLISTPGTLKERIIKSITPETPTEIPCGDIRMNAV
5-hydroxytryptamine receptor 2C, sequence (P28335 whole entry): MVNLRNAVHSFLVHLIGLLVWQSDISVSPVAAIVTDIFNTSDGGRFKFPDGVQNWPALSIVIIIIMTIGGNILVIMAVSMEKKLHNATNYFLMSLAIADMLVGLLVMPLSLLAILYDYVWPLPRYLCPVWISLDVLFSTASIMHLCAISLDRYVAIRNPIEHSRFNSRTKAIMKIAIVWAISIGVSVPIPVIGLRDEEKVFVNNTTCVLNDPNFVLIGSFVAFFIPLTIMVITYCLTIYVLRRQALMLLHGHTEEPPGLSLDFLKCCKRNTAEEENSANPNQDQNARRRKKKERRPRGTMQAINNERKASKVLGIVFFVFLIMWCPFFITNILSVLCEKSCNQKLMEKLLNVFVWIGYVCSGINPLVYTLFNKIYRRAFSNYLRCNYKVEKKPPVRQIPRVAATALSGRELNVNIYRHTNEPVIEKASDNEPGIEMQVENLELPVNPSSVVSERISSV
Cytochrome P450 3A4, sequence (P08684 whole entry): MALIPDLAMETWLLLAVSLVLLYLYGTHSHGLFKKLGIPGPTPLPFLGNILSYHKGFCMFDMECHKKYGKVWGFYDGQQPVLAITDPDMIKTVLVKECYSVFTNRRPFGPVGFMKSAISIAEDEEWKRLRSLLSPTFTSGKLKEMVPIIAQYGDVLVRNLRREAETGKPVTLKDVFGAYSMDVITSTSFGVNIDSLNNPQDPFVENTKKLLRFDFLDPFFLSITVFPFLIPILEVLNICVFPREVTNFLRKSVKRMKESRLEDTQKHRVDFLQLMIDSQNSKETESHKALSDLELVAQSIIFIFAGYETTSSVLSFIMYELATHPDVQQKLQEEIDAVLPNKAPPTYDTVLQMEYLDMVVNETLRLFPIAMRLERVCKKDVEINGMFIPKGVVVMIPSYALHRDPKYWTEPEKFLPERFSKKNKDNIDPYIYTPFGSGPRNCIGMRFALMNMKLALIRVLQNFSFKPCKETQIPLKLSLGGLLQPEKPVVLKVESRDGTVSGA
Alpha-1A adrenergic receptor, sequence (P43140 whole entry): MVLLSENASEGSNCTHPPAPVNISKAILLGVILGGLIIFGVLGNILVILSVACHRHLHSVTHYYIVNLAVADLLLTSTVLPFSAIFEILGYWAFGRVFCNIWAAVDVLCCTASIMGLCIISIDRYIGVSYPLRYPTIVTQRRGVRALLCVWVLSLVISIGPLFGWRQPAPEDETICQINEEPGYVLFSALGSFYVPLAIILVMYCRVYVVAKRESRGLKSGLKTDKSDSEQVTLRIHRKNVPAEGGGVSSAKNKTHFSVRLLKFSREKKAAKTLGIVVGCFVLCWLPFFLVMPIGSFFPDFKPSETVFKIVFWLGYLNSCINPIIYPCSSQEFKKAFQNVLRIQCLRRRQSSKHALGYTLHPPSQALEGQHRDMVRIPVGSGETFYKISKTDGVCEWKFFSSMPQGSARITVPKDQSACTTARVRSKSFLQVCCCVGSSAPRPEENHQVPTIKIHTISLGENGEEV
Cytochrome P450 2C9, sequence (P11712 whole entry): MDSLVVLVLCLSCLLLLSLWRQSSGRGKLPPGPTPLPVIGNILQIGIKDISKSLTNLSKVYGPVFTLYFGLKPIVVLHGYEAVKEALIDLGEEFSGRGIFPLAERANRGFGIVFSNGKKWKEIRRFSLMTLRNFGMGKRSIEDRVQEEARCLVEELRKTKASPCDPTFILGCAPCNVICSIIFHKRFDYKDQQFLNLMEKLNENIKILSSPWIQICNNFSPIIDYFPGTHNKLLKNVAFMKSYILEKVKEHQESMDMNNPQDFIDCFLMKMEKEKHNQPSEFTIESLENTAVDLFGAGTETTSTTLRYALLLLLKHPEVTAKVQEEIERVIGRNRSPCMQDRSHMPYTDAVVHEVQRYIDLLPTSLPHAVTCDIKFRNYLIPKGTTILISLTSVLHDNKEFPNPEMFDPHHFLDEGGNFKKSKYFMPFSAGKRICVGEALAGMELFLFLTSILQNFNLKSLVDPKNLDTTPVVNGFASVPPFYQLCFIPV
Cytochrome P450 2D6, sequence (P10635 whole entry): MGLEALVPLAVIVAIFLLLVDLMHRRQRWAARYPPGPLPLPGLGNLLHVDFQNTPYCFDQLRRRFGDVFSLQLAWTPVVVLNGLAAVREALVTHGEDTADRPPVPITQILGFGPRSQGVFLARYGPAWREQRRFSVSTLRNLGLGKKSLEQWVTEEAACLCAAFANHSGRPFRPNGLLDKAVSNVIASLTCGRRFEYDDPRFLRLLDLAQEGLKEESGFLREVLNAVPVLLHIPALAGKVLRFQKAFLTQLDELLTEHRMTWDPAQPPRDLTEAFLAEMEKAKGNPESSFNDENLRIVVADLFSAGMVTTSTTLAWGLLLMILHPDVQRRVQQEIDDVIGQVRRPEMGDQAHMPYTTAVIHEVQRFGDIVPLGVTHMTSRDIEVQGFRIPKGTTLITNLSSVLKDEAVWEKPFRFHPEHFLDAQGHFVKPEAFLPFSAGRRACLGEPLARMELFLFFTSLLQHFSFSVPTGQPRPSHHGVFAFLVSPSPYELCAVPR

On to `COc1ccc(Sc2ccc(C)cc2N2CCNCC2)cc1`, for which the inhibition constant Ki was under 100 nM in [1], under 100 nM in series [2], 4000 nM in [4] and 190 nM in [5]. This compound yielded a 50% inhibitory concentration (IC50) in series [3] of 7.9 nM.

Regarding `CN(C)CCC[C@@]1(c2ccc(F)cc2)OCc2cc(C#N)ccc21` [ESCITALOPRAM], the Activity in the series on Rattus norvegicus [6] was 700%.

Regarding `Cl.Clc1ccc(Sc2ccccc2N2CCNCC2)cc1`, in series [7], the bioavailability amounted to 26%. The CLH with Rattus norvegicus [8] turned out to be 96.7 mL/min/kg; with Liver microsomes [9], 70 mL/min; in the series on Liver microsomes [10], 0.6 L/min. Moreover, the concentration for half-maximal inhibition (IC50) came out at 6800 nM on Cytochrome P450 3A4; 400 nM at Cytochrome P450 2D6; 31000 nM on Cytochrome P450 2C9; 53000 nM at Cytochrome P450 1A2; 45 nM in series [11]; 190 nM in [12]. Moreover, the IC50 in series [13] amounted to 160 nM; in [14] it was 37 nM; in series [3], 13 nM. Further, the Ki was found to be 69 nM in [4] and 36 nM in series [5]. For the same compound, the Ratio IC50 came to 12 in the series filed under Rattus norvegicus [15], 2.8 in the series filed under Rattus norvegicus [16], 3.5 in the series listed under Rattus norvegicus [17] and 15 in the series listed under Rattus norvegicus [18].
